Source: paper PMC8698672, “Selective Anticancer and Antimicrobial Metallodrugs Based on Gold(III) Dithiocarbamate Complexes” (Biomedicines, 2021)

Tests used:
[1] = system: Undifferentiated Caco-2/TC7 cell; assay: Apoptosis/necrosis, Annexin V-FITC / 7-AAD flow cytometry; assay type: cell-based, human; conditions: 20 μM, 24 h
Procedure: For the studies of apoptosis, using the detection of phosphatidylserine in the outer layer of the plasma membrane, an Annexin V-FITC Apoptosis Detection kit (Immunostep, Salamanca, Spain) was used. After incubation with the complexes, the cells were collected and transferred to flow-cytometry tubes. A negative control was prepared with untreated cells, which was used to define the basal level of apoptotic, necrotic, or dead cells. The staining with Annexin V-FITC and 7-Aminoactinomycin D (7-AAD) was performed according to the manufacturer’s recommendations. The cells were washed twice with temperate phosphate-buffered saline (PBS) and resuspended in 200 μL of 1x Annexin-binding buffer. After that, 2.5 μL Annexin V-FITC and 2.5 μL […] were added to each 50 μL of cell suspension. After incubation for 15 min at RT in the dark, 400 μL of 1× Annexin-binding buffer were added and analyzed by flow cytometry within 1 h. The signal intensity was measured using a Gallios Flow Cytometer (Beckman Coulter, Brea, CA, USA) and analyzed using the Kaluza Analysis Software (Beckman Coulter).
After obtaining great results from the cell viability studies, it was determined that only non-cytotoxic complexes on normal cells are good candidates as anticancer drugs, so complexes C1, C5, and C6 were selected for the following studies. Thus, we proceeded to elucidate the action mechanism of these three complexes to induce cell death. The most convenient cell death for anticancer drugs is apoptosis, since in this way no inflammation processes occur and it is carefully controlled. The apoptotic way is normally characterized by several morphological changes in the cell membrane, by which phosphatidylserine (PS) is exposed, moving from the inner part to the outer surface of the membrane. Thanks to this translocation, Annexin V (FITC-conjugated) can interact selectively with the PS, differentiating healthy cells from apoptotic cells. Besides, cells undergoing late apoptosis stages and necrotic cells present deep damage in the membrane that makes 7-aminoactinomycin D (7-AAD) access the nucleus. Therefore, by using flow cytometry, all different cell populations can be distinguished.
Figure 4 Undifferentiated Caco-2/TC7 cell apoptotic-state (a) and necrotic-state (b) analysis after 24 h of incubation with C1, C5, and C6 (20 µM).

[2] = system: Cryptococcus neoformans (Cn); assay: Antifungal MIC assay (CO-ADD); assay type: cell-based; conditions: 36 h, 35 °C, inhibition ≥ 70%
Procedure: The antimicrobial assays were performed according to the protocols of the Community for Open Antimicrobial Drug Discovery (CO-ADD). […] All the sample preparation was done using liquid-handling robots.
The antifungal activity of all synthesized complexes was evaluated in two different fungi, Candida albicans (Ca) and Cryptococcus neoformans (Cn). Fungi strains were cultured for 3 days on yeast extract–peptone–dextrose (YPD) agar at 30 °C. A yeast suspension of 1 × 10^6 to 5 × 10^6 CFU/mL (as determined by OD530) was prepared from five colonies. The suspension was subsequently diluted and added to each well of the complex-containing plates, giving a final cell density of fungus suspension of 2.5 × 10^3 CFU/mL and a total volume of 50 μL. All plates were covered and incubated at 35 °C for 36 h without shaking. […] The absorbance was measured using a Biotek Multiflo Synergy HTX plate reader (Winooski, VT, USA). In both cases, the percentage of growth inhibition was calculated for each well, using the negative control (media only) and positive control (fungi without inhibitors) on the same plate. […] Due to a higher variance in growth and inhibition, a lower threshold was applied to the data for C. neoformans.

BSA = target: T1, BSA (Bos taurus, UniProt P02769); assay: BSA interaction, fluorescence quenching (Stern–Volmer); assay type: binding, bovine; conditions: for bimolecular quenching constant kq: BSA 50 μM in PBS pH 7.4; for Stern–Volmer quenching constant KSV: BSA 50 μM in PBS pH 7.4, excitation 295 nm; for number of binding sites n: modified Stern–Volmer equation; for number of binding sites n, rounded (in brackets): whole number printed in brackets after n
T1 construct: purchased Sigma Aldrich
Procedure: BSA was commercially available from Sigma Aldrich. A 2 mM solution of BSA was prepared in PBS (10 mM, pH = 7.4). The final concentration of the stock BSA solution was checked by UV–Vis spectra (ε279 nm = 43,824 M^−1 cm^−1). The value obtained was the real concentration of the stock solution. A 6 mM stock solution of the gold complexes in DMSO was prepared and different aliquots of the gold complex were added to a 50 μM solution of BSA in PBS and placed in a quartz cuvette of 1 cm optical path. The fluorescence spectra were recorded on a Horiba Jobin Yvon (Bensheim, Germany) fluorolog FL-3-11 spectrometer. The samples were excited at 295 nm and the emission spectra were recorded in a range from 310 to 450 nm with emission slits set to 2 nm. The fluorescence was measured for 4 min after every addition of the gold complex aliquots. The fluorescence intensities of the PBS and the gold complexes were irrelevant under the described conditions.
The data were analyzed using the Stern−Volmer equation F0/F = 1 + KSV (gold complex) = 1 + Kqτ0 (gold complex) (τ0 = lifetime of BSA in absence of the quencher) to obtain the Stern−Volmer quenching constant (KSV) and the quenching rate constant (Kq). The binding constant (Kb) was quantified using the modified Stern−Volmer equation: log {(F0 − F)/F} = log Kb + n log (gold complex) (n = number of binding sites).
This intrinsic fluorescence is extremely sensitive to the environment, so any binding or interaction of molecules induces changes in the BSA emission spectrum. Consequently, interaction with BSA studies are based on monitoring the BSA luminescence in the range of 300–450 nm by adding increasing concentrations of Au(III) complexes (Figure 3a and Figure S6). The obtained fluorescence data were analyzed using the Stern–Volmer equation, which allows the Stern-Volmer quenching constant KSV and the bimolecular quenching constant kq to be calculated (Figure 3b). In most of the cases studied, the Stern–Volmer representation fit a straight line, indicative of a single quenching mode, either static or dynamic. In case of drug development, static quenching is usually required to probe an interaction between the drug and the protein. By studying the bimolecular quenching constant (kq), the operated quenching can be determined since this parameter represents the efficiency of quenching or how accessible the fluorophores are to the quencher. Dynamic quenching depends on diffusion processes, so a higher kq value than the diffusion-controlled rate constant of the biomolecule in water, 10^10 M^−1s^−1, may indicate a contribution of static quenching. […] Additionally, the modified Stern–Volmer equation permits the values of the binding constant (Kb) for each gold complex and the number of binding sites (n) to be calculated. According to the Kb values observed in Table 3, there was a moderated interaction force between complex-BSA. These values were higher than other reported for gold(I) complexes, but similar to the documented interactions for potential drugs based on ruthenium or nickel.

Row | Compound | necrosis [1] | percentage of cells in apoptosis vs control [1] | MIC Cn [2] [µg/mL] | bimolecular quenching constant kq (BSA) [M⁻¹ s⁻¹] | Stern–Volmer quenching constant KSV (BSA) [M⁻¹] | number of binding sites n (BSA) | number of binding sites n, rounded (in brackets) (BSA)
1 | Cc1ccc(-c2ccccn2)[c]([Au+][S]C(=S)N(C)C)c1.F[P-](F)(F)(F)(F)F [Complex C1, [Au(tpy)(dmdtc)] PF6] | did not die because of necrosis | no significant differences | 32 | 1.3e+12 | 13000 | 1.72 | 2
2 | CN(C)C(=S)[S][Au+][c]1ccccc1-c1ccccn1.F[P-](F)(F)(F)(F)F [Complex C2, [Au(ppy)(dmdtc)]PF6] |  |  | 32 | 1.37e+12 | 13700 | 1.42 | 1
3 | CCN(CC)C(=S)[S][Au+][c]1cc(C)ccc1-c1ccccn1.F[P-](F)(F)(F)(F)F [Complex C3, [Au(tpy)(dedtc)]PF6] |  |  | 2 | 1.9e+12 | 19000 | 0.95 | 1
4 | Cc1ccc2[c](c1)[Au-]1([S]C(N(Cc3ccccc3)Cc3ccccc3)=[S+]1)[n+]1ccccc1-2.F[P-](F)(F)(F)(F)F (centres unmarked) [Complex C5, [Au(tpy)(dbdtc)]PF6] | did not die because of necrosis | no significant differences | 32 | 4.43e+12 | 44300 | 1.57 | 1–2
5 | F[P-](F)(F)(F)(F)F.S=C([S][Au+][c]1ccccc1-c1ccccn1)N(Cc1ccccc1)Cc1ccccc1 [Complex C6, [Au(ppy)(dbdtc)]PF6] | did not die because of necrosis | no significant differences |  | 6.44e+12 | 64400 | 1.43 | 1
6 | [Au(ppy)(dedtc)]PF6 [Complex C4] |  |  | 32 | 2.01e+12 | 20100 | 1.18 | 1
